Results: PubChem BioAssay (NCI)
Where “and” joins values, the source holds several entries; their conditions need not be identical. Identical values can stand only once.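 Five concentrations, 48 hours, 96-well plates. GI50 is the concentration that inhibits growth by half. Definition used: TGI = concentration required for complete inhibition of growth.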

Experiments:
Test in all cases: NCI tumour cell line growth inhibition, 48 h
[1] = tested on: COLO 205 colon
[2] = tested on: M14 melanoma
[3] = tested on: NCI-H226 lung
[4] = tested on: NCI-H522 lung
[5] = tested on: OVCAR-5 ovarian
[6] = tested on: SF-295 CNS
[7] = tested on: SN12C renal
[8] = tested on: SR leukemia
[9] = tested on: NCI/ADR-RES ovarian
[10] = tested on: SK-MEL-28 melanoma

Row | Structure (SMILES) | TGI [1] | TGI [2] | TGI [3] | TGI [4] | TGI [5] [µM] | TGI [6] | TGI [7] [µM] | TGI [8] [µM] | GI50 [1] [µM] | GI50 [2] | GI50 [3] | GI50 [4] | GI50 [9] [µM] | TGI [9] [µM] | GI50 [5] [µM] | GI50 [6] [µM] | GI50 [10] [µM] | TGI [10] | GI50 [7] [µM] | GI50 [8] [µM]
1 | COC(=O)C1=NC(=S)NC(c2ccccc2)C1c1nc2ccccc2o1 (stereo not given) | > 50 µM | > 50 µM | > 50 µM | > 50 µM | > 50 | > 50 µM | > 50 | > 50 | – | – | – | – | – | – | – | – | – | – | – | –
2 | Nc1ncn([C@H]2CC(O)[C@@H](CO)S2)c(=O)n1 (stereo not given in full) | > 100 µM | > 100 µM | > 100 µM | > 100 µM | > 100 | > 100 µM | > 100 | – | 0.839 | 2.62 µM | 20.3 µM | 0.154 µM | 0.559 | > 100 | 23.3 | 35.5 | 2.05 | > 100 µM | 3.6 | –
3 | COC(=O)c1c(C(=O)OC)c(-c2ccccc2)n(-c2ccccc2)c(=O)c1-c1ccccc1 | > 100 µM | > 100 µM | > 100 µM | > 100 µM | > 100 | > 100 µM | > 100 | > 100 | – | – | – | – | – | – | – | – | – | – | – | –
4 | Cc1ccc(NCCNCC(C)(C)O)c2c(=O)c3ccc(Cl)cc3sc12 | 2.92 µM | 3.26 µM | – | 3.59 µM | 2.95 | 3.11 µM | 3.01 | – | 1.34 | 1.66 µM | – | 1.82 µM | 1.52 | 3.02 | 1.47 | 1.66 | 1.81 | 3.38 µM | 1.47 | –
5 | N[C@@H]1CCCN(c2c(Br)cnc3[nH]cc(NC(=O)C4CC4)c23)C1 | 59 µM | – | > 94.6 µM | > 100 µM | > 100 | > 100 µM | > 100 | > 100 | 2.27 | – | 11 µM | 13 µM | 0.393 | > 70.7 | 0.478 | 0.328 | 77.2 | > 100 µM | 1.78 | 0.112
6 | Clc1ccc(C=Nc2ccc(-c3nc4ccccc4[nH]3)cc2)cc1 | > 100 µM | > 100 µM | > 100 µM | > 100 µM | > 100 | > 100 µM | > 100 | – | > 100 | > 100 µM | > 100 µM | > 100 µM | > 100 | > 100 | > 100 | > 100 | > 100 | > 100 µM | > 100 | –
7 | COc1ccc(/C=C/C(=O)c2c(-c3ccccc3)nn(C)c(=O)c2N2CC2C)cc1 (stereo not given) | 89.2 µM | > 100 µM | > 100 µM | 67.1 µM | > 100 | > 100 µM | > 100 | – | – | – | – | – | – | – | – | – | – | > 100 µM | – | –
8 | N#C/C(=C\c1ccc(O)cc1)C(N)=O | > 100 µM | > 100 µM | > 100 µM | > 100 µM | > 100 | > 100 µM | > 100 | – | – | – | – | 97.5 µM and 44 µM | – | > 100 | – | – | – | > 100 µM | – | –
9 | Cc1cc(NCCCCCCCNc2cc(C)nc3cc(N)ccc23)c2ccc(N)cc2n1 | 29.3 µM | > 100 µM | 78.4 µM | 81.5 µM | > 100 | > 100 µM | > 100 | 66.8 | – | – | – | – | – | – | – | – | – | > 100 µM | – | –
10 | O=C(N/C(=C\c1ccc([N+](=O)[O-])cc1)c1nc2ccccc2s1)c1ccccc1 | > 100 µM | 81.8 µM | – | – | > 100 | – | 44.9 | – | – | – | – | – | – | – | – | – | – | > 100 µM | – | –
11 | O=P(CN1CCOCC1)(c1ccccc1)c1ccccc1 | > 100 µM | > 100 µM | – | > 100 µM | > 100 | > 100 µM | > 100 | – | – | – | – | – | – | – | – | – | – | > 100 µM | – | –
12 | CCN(CC)CCOC(COc1cc(C)cc(C)c1)COc1cc(C)cc(C)c1 | 3.52 µM | 3.06 µM | 23.9 µM | 18.3 µM | 6.18 | – | 15.6 | – | 1.65 | 1.35 µM | 7.16 µM | 4.51 µM | 3.34 | 14.6 | 1.85 | – | 1.84 | 3.77 µM | 2.62 | –
13 | CC1[C@@]2(CCC(C)(C)O2)O[C@@H]2C=C3C4CCC5Cc6nc7c(nc6C[C@@]5(C)C4C[C@H](O)[C@@]3(C)[C@]12O)CC1CCC2C3=C[C@H]4O[C@@]5(O[C@@](C)(CO)C[C@@H]5O)C(C)[C@@]4(O)[C@]3(C)[C@@H](O)CC2[C@]1(C)C7 (stereo not given in full) | 0.472 µM and 0.0525 µM | 0.122 µM | 0.411 µM and 0.806 µM | 0.418 µM and 0.0804 µM | – | – | 1.19 | – | 0.0141 | – | 0.0107 µM | 0.0132 µM | – | 2.05 | 0.00586 | < 0.000365 | – | 0.221 µM | 0.421 | –
14 | COc1cc(C(=O)c2cnc(-c3c[nH]c4cccc(C)c34)[nH]2)cc(OC)c1OC | 0.0412 µM | – | – | 0.0224 µM | > 100 | 52.9 µM | > 100 | > 100 | 0.00513 | – | 0.00485 µM | – | 0.0123 | – | 0.0746 | – | 0.99 | 97.4 µM | 0.00929 | –
15 | C/C=C/C=C/c1cc2cc3c(c(O)c2c(=O)[nH]1)C1(CC3)C(O)=c2c(=O)c3c(=O)cc(OC)c(=O)c=3c(=O)c2=C1O (stereo not given) | 1.23 µM and 6.92 µM | 3.24 µM and 9.06 µM | 3.71 µM and 8.42 µM | – | – | 2.91 µM and 8.02 µM | – | – | – | 0.315 µM and 0.977 µM | 0.23 µM and 0.895 µM | – | – | 37.9 | – | – | – | 4.93 µM and 20.1 µM | – | –
16 | COC1C(OC(=O)c2ccc(C)[nH]2)C(O)C(Oc2ccc3c(O)c(NC(=O)c4ccc(O)c(CC=C(C)C)c4)c(=O)oc3c2Cl)OC1(C)C (stereo not given) | 52.8 µM | 32.2 µM | 36.7 µM | 29.8 µM | 33.2 | 43.4 µM | 53.2 | 56.9 | – | – | – | – | – | – | – | – | – | 32.9 µM | – | –
17 | COC(=O)CC1(O)C(=O)OCc2c1cc1n(c2=O)Cc2c-1nc1ccccc1c2OC (stereo not given) | > 100 µM | 32.2 µM | 0.688 µM | 16.3 µM | > 100 | 17.5 µM | 1.84 | < 0.0136 | – | – | – | – | – | – | – | – | – | > 100 µM | – | –
18 | CCOc1ccc(NC(=O)CC2SC(=Nc3ccc(C)cc3)NC2=O)cc1 (stereo not given) | > 100 µM | > 100 µM | – | > 100 µM | > 100 | > 100 µM | > 100 | > 100 | – | – | – | – | – | – | – | – | – | > 100 µM | – | –
19 | CC1NOC(=O)C1N=Nc1cccc(Cl)c1 (stereo not given) | 55.7 µM | > 100 µM | > 100 µM | 62.8 µM | > 100 | > 100 µM | > 100 | 71.5 | – | – | – | – | – | – | – | – | – | > 100 µM | – | –
